Source: patent US20230331803A1, “CO-AGONISTS OF THE GLP-1 AND AMYLIN RECEPTORS” (priority 2020, published 2023)
Like-named read-outs stand apart in the source and are kept apart here. Starred links: 1 amine or outer side, 2 acyl side, 3 side chain; linkers in the order of their positions; H or OH if unused. Non-standard residues stand in square brackets, D forms with d. Groups on a side chain read outwards from the residue. *: point of attachment. Decanoyl(10-(4-HOOC-PhO)) = O=C(O)c1ccc(OCCCCCCCCCC(=O)*)cc1; C20 diacid = O=C(O)CCCCCCCCCCCCCCCCCCC(=O)*; C18 diacid = O=C(O)CCCCCCCCCCCCCCCCC(=O)*; C16 diacid = O=C(O)CCCCCCCCCCCCCCC(=O)*; γGlu = O=C(O)[C@H](CCC(=O)[*:2])N[*:1]; εLys = N[C@@H](CCCCN[*:1])C(=O)[*:2]; Trx = NC[C@H]1CC[C@H](C(=O)O)CC1; AEEA = NCCOCCOCC(=O)O; Aib = CC(C)(N)C(=O)O

Legend:
human GLP-1 receptor = biological target: T1, human GLP-1 receptor (Homo sapiens, UniProt P43220); test: Human GLP-1 receptor in vitro potency assay (CRE-luciferase reporter, BHK cells); format: cell-based
T1 construct: expressed in transfected cells; host or cells: BHK (Baby Hamster Kidney) cells, clone BHK 467-12A KZ-10, stably transfected, with CRE-luciferase reporter
T1 sequence (P43220 24-463): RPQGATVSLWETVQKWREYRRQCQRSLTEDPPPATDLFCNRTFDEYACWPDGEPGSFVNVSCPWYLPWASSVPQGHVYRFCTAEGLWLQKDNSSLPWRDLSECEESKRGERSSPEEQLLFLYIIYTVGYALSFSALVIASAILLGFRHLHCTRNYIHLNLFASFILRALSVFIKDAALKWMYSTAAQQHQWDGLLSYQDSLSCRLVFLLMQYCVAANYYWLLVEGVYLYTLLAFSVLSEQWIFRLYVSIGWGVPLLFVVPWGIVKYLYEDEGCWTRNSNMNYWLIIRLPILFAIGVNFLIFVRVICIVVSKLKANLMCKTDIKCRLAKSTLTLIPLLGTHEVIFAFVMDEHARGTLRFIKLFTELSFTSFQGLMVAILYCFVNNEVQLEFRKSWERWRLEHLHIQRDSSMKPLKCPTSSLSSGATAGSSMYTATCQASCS
Experimental: It is thus possible to measure GLP-1 receptor activity using a CRE-luciferase reporter gene introduced into Baby Hamster Kidney (BHK) cells co-expressing the GLP-1 receptor.
(§1) Cells were aliquoted and stored at -180° C. until use.
Plates were sealed and incubated at room temperature with gentle shaking for 30 minutes while protected from light. Luminescence was detected on a luminescence plate reader e.g. a Synergy 2 (BioTek).

[1] = biological target: T2, human amylin receptor (hAmyR3) (Homo sapiens, UniProt O60896+P30988); test: Human amylin receptor in vitro potency assay (CRE-luciferase reporter, BHK cells); format: cell-based;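 note: BHK cells expressing human calcitonin receptor plus RAMP3 (amylin-3 receptor) with a CRE-luciferase reporter, agonist activity read as luminescence from cAMP-driven transcription, 7-point serial dilutions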
T2 construct: host or cells: BHK cells (Hollex-1 line: human calcitonin receptor (a) + CRE-Luc), further transfected with human RAMP3
T2 sequence (P30988 25-474): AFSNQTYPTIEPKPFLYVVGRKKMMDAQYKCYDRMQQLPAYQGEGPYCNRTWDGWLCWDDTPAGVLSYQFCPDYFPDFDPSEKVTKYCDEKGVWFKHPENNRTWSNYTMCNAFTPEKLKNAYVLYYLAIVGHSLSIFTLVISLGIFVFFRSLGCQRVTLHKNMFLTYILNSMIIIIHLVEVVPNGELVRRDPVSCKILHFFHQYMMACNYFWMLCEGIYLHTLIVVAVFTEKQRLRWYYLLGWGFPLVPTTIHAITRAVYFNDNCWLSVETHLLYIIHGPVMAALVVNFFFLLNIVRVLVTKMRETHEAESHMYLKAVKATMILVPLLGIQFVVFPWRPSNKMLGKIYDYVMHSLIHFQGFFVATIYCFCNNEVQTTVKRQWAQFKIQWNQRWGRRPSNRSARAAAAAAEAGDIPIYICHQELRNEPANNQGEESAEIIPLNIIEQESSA
T2 sequence (O60896 24-148): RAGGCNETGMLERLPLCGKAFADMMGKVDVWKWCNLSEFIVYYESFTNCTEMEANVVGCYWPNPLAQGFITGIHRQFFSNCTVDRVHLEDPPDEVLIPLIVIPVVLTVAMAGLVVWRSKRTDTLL
Text: Activation of hAmyR3 leads to increased cellular concentrations of cAMP. Consequently, transcription is activated by promotors containing multiple copies of the cAMP response element (CRE). It is thus possible to measure hAmyR3 activity using a CRE-luciferase reporter gene introduced into Baby Hamster Kidney (BHK) cells co-expressing the hAmyR3.
The cell line was further transfected with human receptor modifying protein 3 (RAMP3) using standard methods. This turns the human calcitonin receptor into a human amylin-3(a) receptor.
as §1
The plate was incubated over night at 37° C. in 5% CO2. On the day of the assay, cells were washed three times in assay buffer. Serial dilutions (7-fold dilutions, 7 concentrations pr. compound and one well containing only assay buffer) of comparator compounds and GLP-1 receptor-amylin receptor co-agonists were performed in assay buffer often starting from approximately 10-100 nM in 96-well plates and 30 µL of each concentration added to the 384-well assay plate with cells. […] The assay plate was sealed, incubated at room temperature with gentle shaking for 5 minutes followed by 30 minutes incubation without shaking while protected from light. Luminescence was detected on a luminescence plate reader e.g. a Synergy 2 (BioTek).

[2] = Table 4a, BHK cells expressing human GLP-1R, CRE-Luc, 3 hours, read-out: Human GLP-1R potency [EC50 (pM)]
[3] = Table 4a, BHK hAmyR3/CRE-Luc cells, 3 hours, read-out: Human AmyR3 potency [EC50 (pM)]

Row | Substance | EC50 (human GLP-1 receptor; [2]) [pM] | EC50 [1, 3] [pM] | EC50 (human GLP-1 receptor) [pM] | EC50 [1] [pM]
1 | H-H[Aib]EGTFTSDVSSYLEEK([AEEA-AEEA-γGlu-C16 diacid])AAREFIAWLVRGRGGGGGEASELSTAALGRLSAELHK([AEEA-AEEA-γGlu-C16 diacid])LATLPRTETGSGSP-NH2 [Compound 0299] | 6 | 11.5 |  | 
2 | H-H[Aib]EGTFTSDVSSYLEEQAAREFIAWLVRGRK([γGlu-C20 diacid])EASELSTAALGRLSAELHELATLPRTETGSGSP-NH2 [Compound 0141] | 43.3 | 13.2 |  | 
3 | H-H[Aib]EGTFTSDVSSYLEGQAAREFIAWLVRGRGQEPK([AEEA-AEEA-γGlu-C18 diacid])GQAPASRLSTEALGRLSAELHELATLPRTETGSGSP-NH2 [Compound 0191] | 5.9 | 54.8 |  | 
4 | HGEGTFTSDVSSYLEEQAARK([AEEA-AEEA-γGlu-Decanoyl(10-(4-HOOC-PhO))])FIEWLVRGK([AEEA-AEEA-γGlu-Decanoyl(10-(4-HOOC-PhO))])GEGGGGGGGGGEASELSTAALGRLSAELHELATLPRTETGSGSP-NH2 [Compound 0098] |  |  | 7.9 | 15.6
5 | H[Aib]EGTFTSDVSSYLEEQAARK([AEEA-AEEA-γGlu-C16 diacid])FIAWLVRGK([AEEA-AEEA-γGlu-C16 diacid])GGGEASELSTAALGRLSAELHELATLPRTETGSGSP-NH2 [Compound 0076] | 1.7 | 46.4 |  | 
6 | H-HWEGTFTSDVSSYLEEQAARK([εLys-AEEA-AEEA-γGlu-Trx-C20 diacid])FIEWLVRGRGEASELSTAALGRLSAELHELATLPRTETGSGSP-NH2 [Compound 0437] | 12 | 11.8 |  | 
7 | H-H[Aib]EGTFTSDVSK([AEEA-AEEA-γGlu-C16 diacid])YLEEQAVREFIAK([AEEA-AEEA-γGlu-C16 diacid])LVRGRGGGEASELSTAALGRLSAELHELATLPRTETGSGSP-NH2 [Compound 0483] | 33.7 | 36.8 |  | 
8 | H-H[Aib]EGTFTSDVSSYLEEQAARK([AEEA-AEEA-γGlu-C20 diacid])FIEWLVRGASELSTAALGRLSAELHELATLPRTETGSGSP-NH2 [Compound 0581] | 17 | 26.4 |  | 
